Measured values: PMC2628638, “Catalytic inhibition of topoisomerase II by a novel rationally designed ATP-competitive purine analogue” (BMC Chemical Biology, 2009)
pIC50: −log10 of the molar value.

Experiments:
topoisomerase II beta = biological target: T1, topoisomerase II beta (Homo sapiens, UniProt Q02880); experiment: Affinity precipitation with biotinylated purine analogue 2 from HL-60 nuclear extracts; format: binding; conditions: 1 μM biotinylated analogue 2; competitor in excess (10 μM), QAP 1 also at equimolar concentration
T1 construct: endogenous in cells; host or cells: HL-60 nuclear extract
Procedure: Topoisomerase II α and β were affinity precipitated with biotinylated inhibitor as follows. Exponentially growing HL-60 cells were collected on ice and incubated with hypotonic buffer (10 mM HEPES pH 7.5, 1.5 mM MgCl2, 10 mM KCl, 0.5 mM DTT, 0.5 mM PMSF, 1× protease inhibitor cocktail (Complete Mini, Roche Diagnostics GmbH)) for 15 minutes, then 0.6% v/v NP-40 was added and cells were disrupted using a Dounce homogenizer. Lysates were transferred to 1.5 ml Protein LoBind Eppendorf tubes and nuclei were collected after centrifugation at 8000 rpm for 10 minutes and washed twice with hypotonic buffer. To extract and release chromatin associated topoisomerase II nuclei were incubated for 30 minutes in DNAse buffer (20 mM Tris HCl pH 7.5, 5 mM MgCl2, 1 mM CaCl2, 25 mM NaCl, 0.5 mM EDTA, 1% NP-40, 1 mM DTT, 1 × protease inhibitor cocktail, 0.1 mM PMSF) containing 40 U DNAse I (Roche Diagnostics GmbH) followed by addition of twice concentrated nuclear extraction buffer (20 mM HEPES pH 7.5, 3 mM MgCl2, 20 mM KCl, 50 mM β-glycerophosphate, 840 mM NaCl, 1 mM EDTA, 50 mM PNPP, 1 mM DTT, 1 mM PMSF) and rotation for 1 h in the coldroom. The soluble fraction was obtained following centrifugation at 13000 rpm for 15 minutes. 25 μg nuclear extract were used for the affinity precipitation. The salt concentration was adjusted to 150 mM with nuclear extraction buffer (without NaCl) and the sample volume was toped off to 200 μl with precipitation buffer (50 mM HEPES pH 7.4, 150 mM NaCl, 25 mM β-glycerophosphate, 25 mM NaF, 5 mM EGTA, 1 mM EDTA, 15 mM PPI, 1 mM PMSF). Compounds were preincubated for 30 minutes prior addition of biotinylated purine analogue 2 for 2 h. Streptavidin agarose beads (Novagen, 69203) were washed twice with PBS, blocked for 30 minutes with PBS containing 1% BSA, washed twice with PBS and finally with precipitation buffer. 40 μl equilibrated streptavidin agarose beads were added to the sample and incubation was continued for 1 h. Beads were pelleted by centrifugation at 7000 rpm for 5 minutes and washed thrice with precipitation buffer. During the last wash the beads were transferred to a new tube and the bound fraction was released by boiling for 5 minutes in Laemmli sample buffer. Topoisomerase II α and β were detected by Western blot as described below.

[1] = test system: topoisomerase II from nuclear extracts of HL-60 cells; experiment: DNA decatenation assay with HL-60 nuclear extracts (kDNA); format: biochemical, human; conditions: catenated kDNA, 450 μM ATP, read-out: mean IC50, inhibition of DNA decatenation
Procedure: Reagents for the assay were purchased from TopoGEN (catalog number 1001–1, TopoGEN, Inc., Port Orange, FL). Topoisomerase II was extracted according to the manufacturer's instructions from nuclei of HL-60 cells (ATCC; American Type Culture Collection, Manassas, Virginia, USA) and contained both isoforms as assessed by Western blotting. Calculation of specific topoisomerase II decatenation activity was based on complete decatenation of a given amount of catenated input DNA (100 ng kDNA) by a defined amount of nuclear extract containing the alpha and beta isoforms or of a defined amount of purified enzyme in a particular amount of time. The topoisomerase II activity from nuclei decatenated 0.07 ng catenated kDNA · min^-1 · ng^-1 extract. Purified topoisomerase II alpha (see above) decatenated 0.13 ng catenated kDNA · min^-1 · ng^-1. Vehicle (DMSO) or drug substance at concentrations to yield the desired end concentrations were added and samples were preincubated for 5 minutes at 37°C and 400 rpm in an Eppendorf thermomixer. Reactions were started by adding ATP (to 450 μM final concentration) to each sample and incubation was continued for 20 minutes. […] Gels were analyzed under a UV transilluminator and decatenated kDNA products were quantified using AlphaEaseFC (FluorChem 8900) image analysis software version 3.2.3 (Alpha Innotech, San Leandro, CA).

T1 sequence (Q02880 whole entry): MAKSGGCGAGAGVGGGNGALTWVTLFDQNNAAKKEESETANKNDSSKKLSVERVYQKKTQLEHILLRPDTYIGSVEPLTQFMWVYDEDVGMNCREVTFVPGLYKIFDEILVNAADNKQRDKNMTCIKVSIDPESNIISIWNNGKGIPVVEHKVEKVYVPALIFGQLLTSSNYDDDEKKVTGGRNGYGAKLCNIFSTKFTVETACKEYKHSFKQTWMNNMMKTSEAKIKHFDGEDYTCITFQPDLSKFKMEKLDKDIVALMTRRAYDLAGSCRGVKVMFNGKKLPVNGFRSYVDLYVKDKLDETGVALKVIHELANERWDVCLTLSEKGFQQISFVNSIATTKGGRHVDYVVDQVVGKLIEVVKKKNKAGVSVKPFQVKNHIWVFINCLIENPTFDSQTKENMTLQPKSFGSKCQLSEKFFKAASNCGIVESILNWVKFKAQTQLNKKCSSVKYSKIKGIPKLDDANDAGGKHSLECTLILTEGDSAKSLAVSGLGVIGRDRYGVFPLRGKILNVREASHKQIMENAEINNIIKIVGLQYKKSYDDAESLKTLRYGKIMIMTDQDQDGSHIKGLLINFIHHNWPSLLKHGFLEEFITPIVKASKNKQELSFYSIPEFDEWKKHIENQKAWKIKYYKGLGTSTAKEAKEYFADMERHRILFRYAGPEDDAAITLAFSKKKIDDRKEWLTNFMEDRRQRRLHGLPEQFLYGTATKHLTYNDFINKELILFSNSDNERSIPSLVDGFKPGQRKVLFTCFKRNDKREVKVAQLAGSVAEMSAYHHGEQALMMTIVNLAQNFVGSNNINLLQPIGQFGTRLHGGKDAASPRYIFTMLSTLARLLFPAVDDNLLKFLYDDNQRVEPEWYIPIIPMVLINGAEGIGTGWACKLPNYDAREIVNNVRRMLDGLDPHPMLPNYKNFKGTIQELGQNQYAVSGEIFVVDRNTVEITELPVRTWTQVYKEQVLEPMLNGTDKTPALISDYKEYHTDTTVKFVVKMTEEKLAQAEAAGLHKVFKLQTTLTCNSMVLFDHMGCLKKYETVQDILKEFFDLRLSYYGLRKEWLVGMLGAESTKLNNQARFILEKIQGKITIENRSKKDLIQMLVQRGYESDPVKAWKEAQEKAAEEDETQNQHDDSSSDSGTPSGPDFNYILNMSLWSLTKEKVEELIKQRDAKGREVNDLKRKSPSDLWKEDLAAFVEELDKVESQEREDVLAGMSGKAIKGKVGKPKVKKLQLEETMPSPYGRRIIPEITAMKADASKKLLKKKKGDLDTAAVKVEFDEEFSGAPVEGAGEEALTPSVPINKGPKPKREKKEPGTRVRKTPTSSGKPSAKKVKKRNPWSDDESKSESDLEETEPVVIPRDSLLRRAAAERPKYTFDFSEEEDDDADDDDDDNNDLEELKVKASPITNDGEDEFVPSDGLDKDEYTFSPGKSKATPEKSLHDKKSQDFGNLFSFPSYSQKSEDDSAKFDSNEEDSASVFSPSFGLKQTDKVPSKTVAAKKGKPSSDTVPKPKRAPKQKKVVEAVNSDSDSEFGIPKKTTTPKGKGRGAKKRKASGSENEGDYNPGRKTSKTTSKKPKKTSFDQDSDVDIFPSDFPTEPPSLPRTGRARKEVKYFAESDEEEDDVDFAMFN

- competition of the interaction of biotinylated purine analogue 2 with topoisomerase II beta (topoisomerase II beta): abolished
- pIC50 [1]: 6.11
SMILES: CCc1nc2nc(Nc3ccc4nc(OCCN5CCOCC5)ccc4c3)nc(NC(C)(C)C)c2[nH]1 [QAP 1]
